Measured values reported in the NIST ThermoML archive (doi:10.1021/je501041r).
Numbers after ± are expanded uncertainties.

Legend:
[1] = xn = mol fraction of the nth substance listed; conditions: 101 kPa, Liquid; for viscosity: Capillary tube (Ostwald / Ubbelohde) method; for mass density: Vibrating tube method
[2] = 101 kPa, Liquid; for viscosity: Capillary tube (Ostwald / Ubbelohde) method; for mass density: Vibrating tube method

SMILES | viscosity ([1]; 298.15 K, x1 = 1) | mass density ([1]; 298.15 K, x1 = 1) | viscosity ([1]; 303.15 K, x1 = 1) | mass density ([1]; 303.15 K, x1 = 1) | viscosity ([1]; 308.15 K, x1 = 1) | mass density ([1]; 308.15 K, x1 = 1) | viscosity ([1]; 313.15 K, x1 = 1) | mass density ([1]; 313.15 K, x1 = 1) | viscosity ([2]; 298.15 K) | mass density ([2]; 298.15 K) | viscosity ([2]; 303.15 K) | mass density ([2]; 303.15 K) | viscosity ([2]; 308.15 K) | mass density ([2]; 308.15 K) | viscosity ([2]; 313.15 K) | mass density ([2]; 313.15 K) | viscosity ([2]; 318.15 K) | mass density ([2]; 318.15 K) | viscosity ([2]; 323.15 K) | mass density ([2]; 323.15 K) | other results
CC(C)CC(C)(C)C [2,2,4-trimethylpentane] + CCCCCCO | 0.478 ± 0.006 mPa·s | 687.82 ± 2 kg/m3 | 0.453 ± 0.005 mPa·s | 683.68 ± 2 kg/m3 | 0.429 ± 0.005 mPa·s | 679.52 ± 2 kg/m3 | 0.408 ± 0.005 mPa·s | 675.32 ± 2 kg/m3 | – | – | – | – | – | – | – | – | – | – | – | – | viscosity ([1]; 318.15 K, x1 = 1): 0.388 ± 0.005 mPa·s; mass density ([1]; 318.15 K, x1 = 1): 671.1 ± 2 kg/m3; viscosity ([1]; 323.15 K, x1 = 1): 0.369 ± 0.005 mPa·s; mass density ([1]; 323.15 K, x1 = 1): 666.85 ± 2 kg/m3
CCCCCCCO [heptan-1-ol] | – | – | – | – | – | – | – | – | 6.004 ± 0.073 mPa·s | 818.82 ± 2 kg/m3 | 5.079 ± 0.062 mPa·s | 815.3 ± 2 kg/m3 | 4.374 ± 0.054 mPa·s | 811.75 ± 2 kg/m3 | 3.8 ± 0.047 mPa·s | 808.17 ± 2 kg/m3 | 3.224 ± 0.04 mPa·s | 804.57 ± 2 kg/m3 | 2.851 ± 0.035 mPa·s | 800.93 ± 2 kg/m3 | –
CCCCCO [pentan-1-ol] | – | – | – | – | – | – | – | – | 3.458 ± 0.042 mPa·s | 810.59 ± 2 kg/m3 | 3.007 ± 0.037 mPa·s | 807.89 ± 2 kg/m3 | 2.625 ± 0.032 mPa·s | 804.16 ± 2 kg/m3 | 2.317 ± 0.029 mPa·s | 800.4 ± 2 kg/m3 | 2.029 ± 0.025 mPa·s | 796.59 ± 2 kg/m3 | 1.795 ± 0.022 mPa·s | 792.75 ± 2 kg/m3 | –
CC(C)CC(C)(C)C [2,2,4-trimethylpentane] + CCCCCO | 0.478 ± 0.006 mPa·s | 687.82 ± 2 kg/m3 | 0.453 ± 0.005 mPa·s | 683.68 ± 2 kg/m3 | 0.429 ± 0.005 mPa·s | 679.52 ± 2 kg/m3 | 0.408 ± 0.005 mPa·s | 675.32 ± 2 kg/m3 | – | – | – | – | – | – | – | – | – | – | – | – | viscosity ([1]; 318.15 K, x1 = 1): 0.388 ± 0.005 mPa·s; mass density ([1]; 318.15 K, x1 = 1): 671.1 ± 2 kg/m3; viscosity ([1]; 323.15 K, x1 = 1): 0.369 ± 0.005 mPa·s; mass density ([1]; 323.15 K, x1 = 1): 666.85 ± 2 kg/m3
CC(C)CC(C)(C)C [2,2,4-trimethylpentane] | – | – | – | – | – | – | – | – | 0.478 ± 0.006 mPa·s | 687.82 ± 2 kg/m3 | 0.453 ± 0.005 mPa·s | 683.68 ± 2 kg/m3 | 0.429 ± 0.005 mPa·s | 679.52 ± 2 kg/m3 | 0.408 ± 0.005 mPa·s | 675.32 ± 2 kg/m3 | 0.388 ± 0.005 mPa·s | 671.1 ± 2 kg/m3 | 0.369 ± 0.005 mPa·s | 666.85 ± 2 kg/m3 | –
CCCCCCO [hexan-1-ol] | – | – | – | – | – | – | – | – | 4.605 ± 0.056 mPa·s | 815.3 ± 2 kg/m3 | 3.944 ± 0.048 mPa·s | 811.71 ± 2 kg/m3 | 3.414 ± 0.042 mPa·s | 808.09 ± 2 kg/m3 | 2.96 ± 0.036 mPa·s | 804.43 ± 2 kg/m3 | 2.581 ± 0.032 mPa·s | 800.75 ± 2 kg/m3 | 2.251 ± 0.028 mPa·s | 797.02 ± 2 kg/m3 | –
CC(C)CC(C)(C)C [2,2,4-trimethylpentane] + CCCCCCCO | 0.478 ± 0.006 mPa·s | 687.82 ± 2 kg/m3 | 0.453 ± 0.005 mPa·s | 683.68 ± 2 kg/m3 | 0.429 ± 0.005 mPa·s | 679.52 ± 2 kg/m3 | 0.408 ± 0.005 mPa·s | 675.32 ± 2 kg/m3 | – | – | – | – | – | – | – | – | – | – | – | – | viscosity ([1]; 318.15 K, x1 = 1): 0.388 ± 0.005 mPa·s; mass density ([1]; 318.15 K, x1 = 1): 671.1 ± 2 kg/m3; viscosity ([1]; 323.15 K, x1 = 1): 0.369 ± 0.005 mPa·s; mass density ([1]; 323.15 K, x1 = 1): 666.85 ± 2 kg/m3
CCCO [propan-1-ol] | – | – | – | – | – | – | – | – | 1.955 ± 0.023 mPa·s | 800.03 ± 2 kg/m3 | 1.737 ± 0.02 mPa·s | 796.01 ± 2 kg/m3 | 1.548 ± 0.018 mPa·s | 791.92 ± 2 kg/m3 | 1.384 ± 0.016 mPa·s | 787.79 ± 2 kg/m3 | 1.241 ± 0.015 mPa·s | 783.65 ± 2 kg/m3 | 1.117 ± 0.013 mPa·s | 779.43 ± 2 kg/m3 | –
CCCO [propan-1-ol] + CC(C)CC(C)(C)C | – | – | – | – | – | – | – | – | – | – | – | – | – | – | – | – | – | – | – | – | viscosity ([1]; 298.15 K, x2 = 0): 1.955 ± 0.023 mPa·s; mass density ([1]; 298.15 K, x2 = 0): 800.03 ± 2 kg/m3; viscosity ([1]; 303.15 K, x2 = 0): 1.737 ± 0.02 mPa·s; mass density ([1]; 303.15 K, x2 = 0): 796.01 ± 2 kg/m3; viscosity ([1]; 308.15 K, x2 = 0): 1.548 ± 0.018 mPa·s; mass density ([1]; 308.15 K, x2 = 0): 791.92 ± 2 kg/m3; viscosity ([1]; 313.15 K, x2 = 0): 1.384 ± 0.016 mPa·s; mass density ([1]; 313.15 K, x2 = 0): 787.79 ± 2 kg/m3; viscosity ([1]; 318.15 K, x2 = 0): 1.241 ± 0.015 mPa·s; mass density ([1]; 318.15 K, x2 = 0): 783.65 ± 2 kg/m3; viscosity ([1]; 323.15 K, x2 = 0): 1.117 ± 0.013 mPa·s; mass density ([1]; 323.15 K, x2 = 0): 779.43 ± 2 kg/m3
